Reference: the NIST ThermoML archive (doi:10.1016/j.jct.2013.03.015)

Test: molar heat capacity at constant pressure; xn = mol fraction of the nth substance listed
Settings: 101 kPa, Crystal, relaxation calorimetry - PPMS by Quantum Design

[Cl-].[K+] [potassium chloride] + [Cl-].[Na+]
Settings | molar heat capacity at constant pressure [J/K/mol]
5.041 K, x2 = 0.9 | 0.0176
5.086 K, x2 = 0.2 | 0.0361
5.095 K, x2 = 0.1 | 0.0387
5.409 K, x2 = 0.9 | 0.0219
5.454 K, x2 = 0.2 | 0.0452
5.458 K, x2 = 0.1 | 0.0485
5.793 K, x2 = 0.9 | 0.027
5.856 K, x2 = 0.2 | 0.0564
5.879 K, x2 = 0.1 | 0.0601
6.208 K, x2 = 0.9 | 0.0335
6.274 K, x2 = 0.2 | 0.07
6.294 K, x2 = 0.1 | 0.0738
6.664 K, x2 = 0.9 | 0.0417
6.728 K, x2 = 0.2 | 0.0878
6.752 K, x2 = 0.1 | 0.0936
7.14 K, x2 = 0.9 | 0.0518
7.176 K, x2 = 0.2 | 0.1084
7.188 K, x2 = 0.1 | 0.1141
7.653 K, x2 = 0.9 | 0.0641
7.691 K, x2 = 0.2 | 0.1356
7.702 K, x2 = 0.1 | 0.1425
8.202 K, x2 = 0.9 | 0.0801
8.238 K, x2 = 0.2 | 0.1702
8.252 K, x2 = 0.1 | 0.1787
8.791 K, x2 = 0.9 | 0.1001
8.829 K, x2 = 0.2 | 0.215
8.84 K, x2 = 0.1 | 0.2244
9.422 K, x2 = 0.9 | 0.1252
9.461 K, x2 = 0.2 | 0.2712
9.475 K, x2 = 0.1 | 0.2828
10.1 K, x2 = 0.9 | 0.157
10.14 K, x2 = 0.2 | 0.3435
10.15 K, x2 = 0.1 | 0.357
10.83 K, x2 = 0.9 | 0.198
10.87 K, x2 = 0.2 | 0.4354
10.89 K, x2 = 0.1 | 0.4512
11.61 K, x2 = 0.9 | 0.2499
11.65 K, x2 = 0.2 | 0.5511
11.67 K, x2 = 0.1 | 0.5685
12.45 K, x2 = 0.9 | 0.3169
12.48 K, x2 = 0.2 | 0.6946
12.5 K, x2 = 0.1 | 0.7153
13.34 K, x2 = 0.9 | 0.4021
13.38 K, x2 = 0.2 | 0.8732
13.4 K, x2 = 0.1 | 0.8969
14.23 K, x2 = 0.9 | 0.51
14.34 K, x2 = 0.2 | 1.092
14.36 K, x2 = 0.1 | 1.12
15.33 K, x2 = 0.9 | 0.6479
15.37 K, x2 = 0.2 | 1.362
15.39 K, x2 = 0.1 | 1.395
16.43 K, x2 = 0.9 | 0.8219
16.47 K, x2 = 0.2 | 1.691
16.49 K, x2 = 0.1 | 1.726
17.61 K, x2 = 0.9 | 1.04
17.65 K, x2 = 0.2 | 2.087
17.67 K, x2 = 0.1 | 2.125
18.87 K, x2 = 0.9 | 1.31
18.91 K, x2 = 0.2 | 2.55
18.94 K, x2 = 0.1 | 2.599
20.24 K, x2 = 0.9 | 1.649
20.26 K, x2 = 0.2 | 3.105
20.29 K, x2 = 0.1 | 3.156
21.7 K, x2 = 0.9 | 2.061
21.71 K, x2 = 0.2 | 3.756
21.74 K, x2 = 0.1 | 3.81
23.25 K, x2 = 0.9 | 2.563
23.26 K, x2 = 0.2 | 4.514
23.29 K, x2 = 0.1 | 4.578
24.92 K, x2 = 0.9 | 3.165
24.93 K, x2 = 0.2 | 5.396
24.96 K, x2 = 0.1 | 5.463
26.71 K, x2 = 0.9 | 3.859
26.72 K, x2 = 0.2 | 6.429
26.74 K, x2 = 0.1 | 6.508
28.63 K, x2 = 0.2 | 7.596
28.64 K, x2 = 0.9 | 4.716
28.66 K, x2 = 0.1 | 7.674
30.69 K, x2 = 0.2 | 8.768
30.7 K, x2 = 0.9 | 5.671
30.71 K, x2 = 0.1 | 8.824
32.89 K, x2 = 0.2 | 10.16
32.9 K, x2 = 0.9 | 6.785
32.91 K, x2 = 0.1 | 10.29
35.25 K, x2 = 0.2 | 11.67
35.27 K, x2 = 0.9 | 8.039
35.28 K, x2 = 0.1 | 11.82
37.78 K, x2 = 0.2 | 13.3
37.81 K, x2 = 0.1 | 13.48
37.81 K, x2 = 0.9 | 9.437
